According to patent US20160175401A1, “COMPOITIONS AND METHODS FOR MODULATING THERMOGENESIS USING PTH-RELATED AND EGF-RELATED COMPOUNDS” (DANA-FARBER CANCER INSTITUTE INC., priority 2013, published 2016):
Entries after “also recorded” stand apart in the source; their conditions may differ.

Key:
Format in all cases: cell-based, mouse
primary white adipocytes [1] = experiment: Thermogenic gene expression (qRT-PCR) in primary white adipocytes; details: for induce thermogenic gene expression, such as that of Ucp1 and Dio2: 1 μg/mL of the protein, primary white adipocytes (FIG. 6, FIG. 19E); for induce thermogenic gene expression, such as that of Ucp1 and Dio2 / effect on Ucp1 expression / thermogenic gene expression by EGF proteins: 24 hours; for effect on Ucp1 expression / thermogenic gene expression by EGF proteins: 1 μg/mL or 100 ng/mL, primary white adipocytes (FIG. 14A)
Protocol: Inguinal SV fractions were obtained from 30-35 days-old male mice by the following procedure. Inguinal fat tissue was dissected, washed with PBS, minced and digested for 45 min at 37° C. in PBS containing 10 mM CaCl, 2.4 U/mL dispase II (Roche), and 1.5 U/mL collagenase D (Roche). Digested tissue was filtered through a 100-μm cell strainer and centrifuged at 600 g for 5 min to pellet the SV cells which were then resuspended in SV culture medium (DMEM/F12 [1:1; Invitrogen] plus glutamax, pen/strep, and 10% FBS), filtered through a 40-μm cell strainer, centrifugation as above, resuspended in SV culture medium and plated. SV cells were grown to confluency for adipocyte differentiation which was induced by the adipogenic cocktail containing 1 μM dexamethasone, 5 μg/mL insulin, […] isobutylmethylxanthine (DMI), and 1 μM rosiglitazone in SV culture medium. 2 days after induction, cells were maintained in SV culture medium containing 5 μg/mL insulin and 1 μM rosiglitazone. Starting at day 6, cells were maintained in SV culture medium only and treated with various molecules for […] and harvested at day 8.
LLC cells were maintained in DMEM (Invitrogen) with 10% FBS and pen/strep. For conditioned media collection, cells were plated at ⅓ confluency. The following day, medium is changed to FreeStyle expression medium (Invitrogen) which was collected 24 hours later. For concentration of expression medium, LLC conditioned media was filtered using a 3 kilodalton (Kd) cut-off filter (Millipore). Adipocytes were maintained in SV culture media (DMEM/F12 [1:1; Invitrogen] plus glutamax, pen/strep, and 10% FBS) and conditioned media treatment experiments were performed 7 days post-differentiation. When adipocytes were treated with conditioned media for 24 hours, the treatment media were composed of 50% SV culturing medium and 50% LLC conditioned media. When conditioned medium was filtered and concentrated, adipocytes were exposed to 90% SV culturing medium and 10% concentrated LLC conditioned media.
RNA was extracted from cultured cells or frozen tissue samples using TRIzol (Invitrogen), purified with Qiagen RNAeasy minicolums and reverse transcribed using High Capacity cDNA Reverse Transcription kit (Applied Biosystems). Resulting cDNA was analyzed by RT-qPCR. Briefly, 25 ng of cDNA and […] of each primer were mixed with SYBR® GreenER™ PCR Master Mix (Invitrogen). Reactions were performed in 384-well format using an ABI PRISM® 7900HT instrument (Applied Biosystems). Relative mRNA levels were calculated using the comparative CT method normalized to cyclophilin.
Inguinal stroma-vascular fractions were obtained from 30-35-day-old male mice using the following procedure: Inguinal fat tissue was dissected, washed with PBS, minced and digested for 45 min at 37° C. in PBS containing 10 mM CaCl2, 2.4 Uml^−1 dispase 11 (Roche) and 1.5 U ml^−1 collagenaseD (Roche). Digested tissue was filtered through a 100-μm cell strainer and centrifuged at 600 g for 5 min to pellet the stroma-vascular cells. The pellets were then resuspended in adipocyte culture medium (DMEM/F2 (1:1, Invitrogen) plus GlutaMAX, penicillin and streptomycin, and 10% FBS), filtered through a 40-μm cell strainer, centrifuged as above, resuspended in adipocyte culture medium and plated. The stroma-vascular cells were grown to confluence for adipocyte differentiation, which was induced by an adipogenic cocktail containing 1 μM dexamethasone, 5 μg ml^−1 insulin, […] isobutylmethylxanthine (DMI) and 1 μM rosiglitazone in adipocyte culture medium. Two days after induction, cells were maintained in adipocyte culture medium containing 5 μg ml^−1 insulin and 1 μM rosiglitazone. Starting on day 6, cells were maintained in adipocyte culture medium only and treated with various molecules for 2-24 h and harvested on day 8.
LLC cells were maintained in DMEM (Invitrogen) with 10% FBS, and penicillin and streptomycin. For conditioned medium collection, cells were plated at a 1:3 confluence.

primary white adipocytes [2] = experiment: Cellular oxygen consumption rate (XF24 Extracellular Flux Analyzer, Seahorse) of primary adipocytes
Protocol: The cellular oxygen consumption rate (OCR) of primary adipocytes was determined using an XF24 Extracellular Flux Analyzer (Seahorse Bioscience). […] Twenty-four hours later, adipocyte culture medium was changed to DMEM lacking NaHCO3 but containing 10 mM glucose, 1 mM pyruvate and the treatment chemicals. The uncoupled and maximal OCRs were determined using […] (carbonyl cyanide p-trifluoromethoxyphenylhydrazone), respectively. Complex-1-dependent respiration was inhibited with 3 μM rotenone. Ex vivo tissue respiration was measured using a Clark electrode (Strathkelvin Instruments) as described in Cohen et al. (2014) Cell 156:304-316. Freshly isolated tissues were briefly minced and transferred to the electrode chamber containing a respiration buffer consisting of 1×DPBS (Delbecco's phosphate-buffered saline), 2% BSA, 25 mM glucose and 1 mM pyruvate. Oxygen consumption values were normalized to tissue weight.

UCP1 = UCP1 protein levels by western blotting in primary adipocytes
Protocol: Cells were homogenized in a lysis buffer containing 50 mM Tris (pH 7.4), 500 mM NaCl, 1% NP40, 20% glycerol, 5 mM EDTA and 1 mM PMSF, supplemented with protease and phosphatase inhibitor cocktails (Roche). The homogenates were centrifuges at 13,000 rpm for 10 min and the supernatants were used as whole cell lysates. Protein concentration was determined by Bio-Rad Bradford assay and 50 μg of proteins were used in each SDS-PAGE run. PVDF membrane was blotted with UCP1 antibody (Abeam) in TBS containing 0.05% Tween and 5% BSA. For secondary antibody incubation, TBS-T containing 5% milk was used. ECL western blotting substrates from Pierce were used for visualization of the results.
(§1) Cells were homogenized in a lysis buffer containing 50 mMTris (pH 7.4), 500 mM NaCl, 1% NP40, 20% glycerol, 5 mM EDTA and 1 mM phenylmethylsulphonyl fluoride (PMSF) supplemented with protease and phosphatase inhibitor cocktails (Roche). The homogenates were centrifuged at 13,000 r.p.m. for 10 min, and the supernatants were used as whole-cell lysates. Protein concentration was determined by Bio-Rad protein assay, and […] protein lysate was separated in each SDS-PAGE lane. The separated proteins were transferred to a polyvinylidene difluoride (PVDF)membrane, which was blotted with antibodies in TBS containing 0.05% Tween (TBS-T) and 5% BSA. For secondary antibody incubation. TBS-T containing 5% milk was used. Enhanced chemiluminescence (ECL) western blotting substrates (Pierce) were used for visualization of the results.

[3] = tested on: PKA substrates CREB and HSL; experiment: PKA signalling: protein phosphorylation by western blotting in primary adipocytes
Protocol: UCP1 protein levels were measured by western blotting in white (FIG. 23A) and brown (FIG. 23B) adipocytes. […] Real-time triplicate readings (upper panel) and their averages (lower panel) are shown (n=4). […] The values are mean±s.e.m. Statistical analysis was conducted using the two-tailed t-test. *, P<0.05; **, P<0.005; ***, P<0.0005, compared with the control group.
as §1

EREG: recombinant mouse EREG (Val56-Leu101; Catalog No. 1068-EP/CF), R&D Systems
induce thermogenic gene expression, such as that of Ucp1 and Dio2 (primary white adipocytes [1]): most potent proteins to induce thermogenic gene expression; also recorded: most potent proteins for inducing thermogenic gene expression; also recorded: induced Ucp1 expression | effect on Ucp1 expression / thermogenic gene expression by EGF proteins (primary white adipocytes [1]): largest effect on Ucp1 expression

NC[C@H](O)c1ccc(O)c(O)c1 [norepinephrine, reference compound]
oxygen consumption, including basal, uncoupled and maximal respiration (primary white adipocytes [2]; 100 nM NE, 100 ng ml^−1 PTHrP or PTH, 24 h (FIG. 23C)): significantly raised oxygen consumption | uncoupled respiration and maximal respiration potential (primary white adipocytes [2]; 24 hour treatment, norepinephrine 100 nM, peptides 100 ng/mL, SeaHorse (FIG. 8D)): significantly elevate | UCP1 protein levels (UCP1; 100 nM NE, 100 ng ml^−1 PTHrP or PTH, 24 h, primary white and brown adipocytes (FIG. 23A-23B)): comparably increased UCP1 protein levels | UCP1 protein levels (UCP1; 24 hour treatment, norepinephrine 100 nM, peptides 100 ng/mL, western blotting (FIG. 8D)): significantly increased | phosphorylation of the PKA substrates CREB and HSL ([3]; 100 nM NE, 100 ng ml^−1 PTHrP or PTH, 30 min, primary white and brown adipocytes (FIG. 23D-23E)): stimulated the phosphorylation

O=S(=O)(NCCNC/C=C/c1ccc(Br)cc1)c1cccc2cnccc12 [H89, reference compound]
transcriptional regulation (Ucp1, Dio2) by noradrenaline, PTHrP and PTH (primary white adipocytes [1]; H89 50 μM white, 30 μM brown adipocytes, factors 2 h (FIG. 23F-23G)): completely inhibited transcriptional regulation | PKA signalling ([3]; H89 50 μM white, 30 μM brown adipocytes, pretreated 1 h (FIG. 23D-23E)): blocked PKA signalling

TGFA: recombinant human TGFA (Val40-Ala89; Catalog No. 239-A-100), R&D Systems
effect on Ucp1 expression / thermogenic gene expression by EGF proteins (primary white adipocytes [1]): largest effect on Ucp1 expression

C=CC(=O)Nc1ccc2ncnc(Nc3ccc(OCc4cccc(F)c4)c(Cl)c3)c2c1 [AST-1306, reference compound]
effect on LLC cell conditioned media thermogenic (browning) activity (primary white adipocytes [1]; AST-1306 1 μM, LLC-cell-conditioned medium, 24 h (FIG. 14C, 21A)): does not inhibit or affect; also recorded: does not block; also recorded: largely unaffected | inhibition of BTC, EREG and HBEGF activity (Ucp1 mRNA induction) (primary white adipocytes [1]; AST-1306 1 μM, BTC, EREG, HBEGF 100 ng/ml each, 24 h (FIG. 14B, 20C)): inhibit BTC, EREG and HBEGF activity; also recorded: completely blocked Ucp1 mRNA induction

B1: BTC: recombinant mouse BTC (Asp32-Gln118; Catalog No. 1025-CE-025/CF), R&D Systems (protein)
chain: DGNTTRTPETNGSLCGAPGENCTGTTPRQKVKTHFSRCPKQYKHYCIHGRCRFVVDEQTPSCICEKGYFGARCERVDLFYLQQDRGQ
induce thermogenic gene expression, such as that of Ucp1 and Dio2 (primary white adipocytes [1]): most potent proteins to induce thermogenic gene expression; also recorded: most potent proteins for inducing thermogenic gene expression; also recorded: induced Ucp1 expression

B2: HBEGF: recombinant human HBEGF (Met1-Leu148; Catalog No. 259-HE-050/CF), R&D Systems (protein)
chain: LVTGESLERLRRGLAAGTSNPDPPTVSTDQLLPLGGGRDRKVRDLQEADLDLLRVTLSSKPQALATPNKEEHGKRKKKGKGLGKKRDPCLRKYKDFCIHGECKYVKELRAPSCICHPGYHGERCHGLSL
induce thermogenic gene expression, such as that of Ucp1 and Dio2 (primary white adipocytes [1]): most potent proteins for inducing thermogenic gene expression; also recorded: induced Ucp1 expression | induce thermogenic gene expression, such as that of Ucp1 and Dio2 (primary white adipocytes [1]; listed as HB-EGF): most potent proteins to induce thermogenic gene expression | effect on Ucp1 expression / thermogenic gene expression by EGF proteins (primary white adipocytes [1]): largest effect on Ucp1 expression
